Tests used:
Assay type in all cases: in vivo, Otiorhynchus sulcatus (black vine weevil)
[1] = system: Otiorhynchus sulcatus; test: Control of Otiorhynchus sulcatus adults on Euonymus fortunei 'Dart's Blanket': contact effect; conditions: 20° C.
Description: (§1) The efficacy of different doses of compound I-1 to control adults of the black vine weevil (Otiorhynchus sulcatus) was tested after direct contact and after feeding of the product. The formulated product was dissolved in water and the resulting aqueous solution/suspension was applied to black vine weevil adults directly or to Euonymus fortunei branches and the branches were exposed to black vine weevil adults.
The treatments were applied by spraying 10 black vine weevils per petri-dish. The vine weevils were completely moistened after spraying. Afterwards the vine weevils were put into a bucket, in which 5 untreated branches of Euonymus fortunei ‘Dart's Blanket’ were placed. The buckets were randomly placed on Danish lorries in a climate cell. After 1 and 5 days, the number of dead vine weevils was counted. The climate cell was adjusted at a constant temperature of 20° C. with 16 hours of light and 8 hours of darkness. Each treatment was replicated 4 times.

[2] = system: Otiorhynchus sulcatus; test: Control of Otiorhynchus sulcatus larvae in the woody ornamental Thuja occidentalis 'Holmstrub' (pot trial); conditions: for Average feeding on roots: method B, index 1 no feeding observed to 4 most roots are damaged; for Average number of total larvae: treatment method B (drench), 20 eggs per pot, approx. 8 months after treatment
Description: Root cuttings of Thuja occidentalis ‘Holmstrub’ were potted in 3-liter containers using a standard soil substrate and first placed on an outdoor container field for four months and then transferred to an indoor container field at a temperature of 15-20° C. for another four months. In treatment method A, 750 g Suscon (chloropyrifos)/m^3 were mixed through the soil substrate. In treatment method B, the calculated amount of product was dissolved in 0.75 l water and added to the 3 litre pot as a drench. The soil of the pot was moistened before application. Eggs of Otiorhynchus sulcatus (20 eggs per pot) were added to the pots 15 weeks after treatment. Approximately 8 months after treatment, the average total number of live larvae (hereinafter also referred to as “average of total larvae”) and the average feeding on the roots were determined. The feeding on the roots was assessed according to the following index rating:
1 no feeding observed 2 slight feeding 3 significant feeding, few root tips are present 4 most roots are damaged
Each experiment was replicated 4 times.

[3] = system: Otiorhynchus sulcatus; test: Control of Otiorhynchus sulcatus adults on Euonymus fortunei 'Dart's Blanket': feeding effect; conditions: 10 untreated weevils, 20° C.
Description: as §1
4 plants of Euonymus fortunei ‘Dart's Blanket’ per treatment were sprayed until drip stadium. 10 untreated black vine weevils were put in a bucket in which 5 treated branches were placed. The buckets were randomly placed on Danish lorries in a climate cell. After 5 and 10 days the number of dead vine weevils were counted. The climate cell was adjusted at a constant temperature of 20° C. with 16 hours of light and 8 hours of darkness. Each treatment was replicated 4 times.

[4] = system: Otiorhynchus sulcatus; test: Control of Otiorhynchus sulcatus eggs/first instar larvae on the Spreading Yew (treated potting medium); conditions: DC formulation, Taxus media densiformis, 25 eggs per plant, live larvae recorded after 3 months
Description: Taxus media densiformis plants were planted in potting medium (60% parts pine bark, 20% hardwood bark and 20% peat) which had been treated before with a DC formulation of the active ingredient diluted with water. Plants were maintained outdoors under standard nursery management conditions throughout the growing season. Incubated vine weevil eggs were obtained from a culture of field-collected adults. Plants were infested with 25 brown eggs each. The total number of live larvae was recorded after 3 months. Each experiment was replicated 5 times.

[5] = 1.14 g a.i./l sprayed on 10 weevils
[6] = 2.27 g a.i./l sprayed on 10 weevils
[7] = 4.56 g a.i./l sprayed on 10 weevils
[8] = branches sprayed with 1.14 g a.i./l
[9] = branches sprayed with 2.27 g a.i./l
[10] = branches sprayed with 4.56 g a.i./l

Compound: CCNC(=NNc1c(Cl)cc(C(F)(F)F)cc1Cl)C1(C)CC1(Cl)Cl (stereo not drawn) [Compound I-1, N-Ethyl-2,2-dichloro-1-methylcyclopropane-carboxamide-2-(2,6-dichloro-α,α,α-trifluoro-p-tolyl)hydrazone]
- Average number of dead adults after 1 day [1, 5]: 0.5
- Average number of dead adults after 5 days [1, 5]: 6.0
- Average number of dead adults after 1 day [1, 6]: 0.3
- Average number of dead adults after 5 days [1, 6]: 9.0
- Average number of dead adults after 1 day [1, 7]: 0.8
- Average number of dead adults after 5 days [1, 7]: 8.5
- Average feeding on roots ([2]; 0.9125 g or ml product/3 l pot): 1.1
- Average number of total larvae ([2]; 0.9125 g or ml product/3 l pot): 0.1
- Average feeding on roots ([2]; 1.825 g or ml product/3 l pot): 1.0
- Average number of total larvae ([2]; 1.825 g or ml product/3 l pot): 0.0
- Average feeding on roots ([2]; 3.65 g or ml product/3 l pot): 1.0
- Average number of total larvae ([2]; 3.65 g or ml product/3 l pot): 0.0
- phytotoxicity ([2]; Thuja occidentalis 'Holmstrub' pot trial): no signs of phytotoxicity
- efficacy against the larvae (in words) ([2]; all treatments in different doses): effective against the larvae of Otiorhynchus sulcatus
- control of larvae and feeding damage compared with the standard treatment ([2]; versus Suscon (chloropyrifos)): better control of Otiorhynchus sulcatus larvae and feeding damage than the standard treatment of Suscon (chloropyrifos)
- Average number of dead adults after 5 days [3, 8]: 8.5
- Average number of dead adults after 10 days [3, 8]: 10.0
- Average number of dead adults after 5 days [3, 9]: 6.5
- Average number of dead adults after 10 days [3, 9]: 8.8
- Average number of dead adults after 5 days [3, 10]: 8.8
- Average number of dead adults after 10 days [3, 10]: 10.0
- control ([4]; rate 250 ppm in potting medium): over 95%
- control ([4]; rate 750 ppm in potting medium): over 95%
- control ([4]; rate 1500 ppm in potting medium): over 95%
